Data from US12421235B2, “Bridged tricyclic carbamoylpyridone compounds and uses thereof” (Gilead Sciences, Inc., priority 2020, dated 2025).

Tests used:
[1] = Cytotoxicity assay in MT-4 cells; type: cell-based; details: human, uninfected MT-4 cells, Cell Titer Glo
Protocol: (§1) Compounds were tested in a high-throughput 384-well assay format for their ability to inhibit the replication of HIV-1 (IIIB) in MT-4 cells. Compounds were serially diluted (1:3) in DMSO on 384-well polypropylene plates and further diluted 200-fold into complete RPMI media (10% FBS, 1% P/S) using the Biotek Micro Flow and Labcyte ECHO acoustic dispenser. Each plate contained up to 8 test compounds, with negative (No Drug Control) and 5 μM AZT positive controls. MT-4 cells were pre-infected with 10 μL of either RPMI (mock-infected) or a fresh 1:250 dilution of HIV-1 IIIB concentrated virus stock. Infected and uninfected MT-4 cells were further diluted in complete RPMI media and added to each plate using a Micro Flow dispenser. After 5 days incubation in a humidified and temperature controlled incubator (37° C.), Cell Titer Glo (Promega) was added to the assay plates and chemiluminescence read using an Envision plate-reader. EC50 values were defined as the compound concentration that causes a 50% decrease in luminescence signal, and were calculated using a sigmoidal dose-response model to generate curve fits. Cytotoxicity Assay in MT-4 Cells Assays were performed as above except uninfected MT-4 cells were added to each well containing test compound. In addition, 10 μM puromycin was added to the last column of each assay plate to assess a base level of cytotoxicity.

[2] = system: HIV-1 (IIIB) in MT-4 cells; test: HIV MT-4 antiviral assay; type: cell-based; details: Human immunodeficiency virus 1, MT4, 120 h, 5 days, Cell Titer Glo
Protocol: Example 47: HIV MT-4 Antiviral and Cytotoxicity Assay
Antiviral Assay in MT-4 Cells
as §1, with “fits.” for “fits. Cytotoxicity Assay in MT-4 Cells Assays were performed as above except uninfected MT-4 cells were added to each well containing test compound. In addition, 10 μM puromycin was added to the last column of each assay plate to assess a base level of cytotoxicity.”

[3] = system: pLai RLuc reporter virus in MT-4 cells; test: HIV MT-4 serum shift antiviral reporter assay; type: cell-based; details: Human immunodeficiency virus 1, MT4, 72 h, read-out: RLUC CCM
Protocol: Example 48: HIV MT-4 Serum Shift Antiviral Reporter Assay
To quantify the amount of protein binding to human serum, compounds were serially diluted (1:3) in DMSO and acoustically transferred onto 384-well assay plates via a Labcyte ECHO robot. Each plate contained up to 8 test compounds, including negative and positive controls, (DMSO, 5 μM AZT respectively). Assay plates were prepared in duplicate, and tested in either CCM (cell culture media) or HS/CCM (human serum/cell culture media). MT-4 cells were first pre-infected with pLai RLuc reporter virus for 2 h at 37° C., then further diluted in either CCM (RPMI media, 10% FBS, 1% P/S) or HS/CCM (RPMI media, 10% FBS, 50% HS, 1% P/S), and subsequently added to each plate using a Biotek Micro Flow dispenser. After a 72-h incubation in a humidified and temperature controlled incubator (37° C.), Renilla Glo (Promega) was added to all assay plates and chemiluminescence read using an Envision plate-reader. EC50 values were defined as the compound concentration that causes a 50% decrease in luminescence signal, and were calculated using a sigmoidal dose-response model to generate curve fits. To determine the amount of protein binding, EC50 fold shifts (or EC50 shifts) were calculated by dividing EC50 (HS/CCM)/EC50 (CCM). […]

[4] = High throughput microsomal stability assay (human liver microsomes); type: in vitro ADME; details: human liver microsomes, 1 uM compound, NADPH + UDPGA cofactors, 37 C
Protocol: Example 49: High Throughput Microsomal Stability Assay
Metabolic stability of compounds was assessed using Human, or Rat Liver Microsomal assays (Corning). In this assay, 10 nL compounds at concentration of 1 mM in 100% DMSO were dispensed into 384-well polypropylene plates using the Echo 550 acoustic liquid dispenser (Labcyte®). Each plate contained 384 wells with a single test compound in each well.
A solution of human (Corning® Gentest™ Human Mixed Pooled Microsomes), or rat (Corning® Gentest™ Rat [Sprague-Dawley] Pooled Liver Microsomes) liver microsomes at 2 mg/ml in 100 mM K2HPO4/KH2PO4 pH 7.4 with Alamethicin from Trichoderma viride (Sigma-Aldrich) 0.0225 mg/ml were incubated on ice for 15 minutes. 5 uL of this solution was added to individual wells following 15 minute incubation at room temperature; and supplemented with 5 uL NADPH Regenerating Solution of cofactors (Corning® Gentest™ UGT Reaction Mix) containing 100 mM K2HPO4/KH2PO4 pH 7.4, 2.6 mM NADP+, 6.6 mM glucose-6-phosphate, 6.6 mM MgCl2, 0.8 U/mL glucose-6-phosphate dehydrogenase, 0.1 mM Sodium Citrate, 6.8 mM uridine diphosphate-glucuronic acid. Final concentration of analyte compounds at the beginning of the reaction was 1 uM. The reactions were incubated at 37° C. and time points of 0, 5, 15, 30, 40, 50, 60, and 70 minutes were collected for further analysis. Background data were collected using reactions without analyte compounds.
Upon collection of the reaction time points, samples were quenched with 30 uL of a solution of 72% acetonitrile, 8% methanol, 0.1% formic acid, 19.9% water, and internal standard (IS). Reaction plates were span in a centrifuge at speed of 4,000 rcf for 30 minutes and 4° C., following a dilution of the 10 uL quenched reaction into 40 uL de-ionized water, yielding assay plates.
Assay plates were analyzed using solid-state extraction coupled with quadrupole time-of-flight mass spectrometer, using Agilent QToF 6530 RapidFire 360 system, with C4 type A solid state cartridges. Analysis was performed in either positive or negative ionization modes. Mobile phases contained 0.1% formic acid in water for loading analytes onto solid state extraction cartridges, and 0.1% formic acid in acetonitrile for elution into mass spectrometer in positive ionization mode, or 0.1% acetic acid in water for loading and 0.1% acetic acid in acetonitrile for extraction in negative ionization mode. Peak-area ratios of integrated counts for individual compounds to IS were plotted as semi-logarithmic chart of log vs time. Initial, linear portion of decay was fitted to a linear regression equation to derive half time of a compound decay.
Pharmacological parameters for an analyte compound metabolism were calculated using the following equations: […]
Where. Calculation of In Vitro Intrinsic Clearance
Concentration refers to the protein concentration (mg/mL) in the reaction.
Calculation of In Vivo Intrinsic Clearance
This scales the in vitro intrinsic clearance up to the value that would be predicted for the entire mass of liver tissue (but with no restriction by blood flow). The value depends upon the size of the liver (species-dependent) and the yield of microsomal protein as appropriate (assumed to be species-independent).
Calculation of Predicted Clearance
Hepatic clearance will depend upon the inter-relationship of intrinsic clearance and hepatic blood flow and can be predicted from in vitro data using a variety of approaches.
Calculation of Hepatic Extraction
This is simply the predicted clearance expressed as a proportion of hepatic blood flow. E=CL/QH*100%
Intrinsic clearance of the instant compounds, as well as for reference compounds A-F, were calculated following the procedure above.

Row | Structure (SMILES) | CC50 at 5 days [1] | EC50 [2] | EC50 [3] | HLM stability [4]
1 | C[C@H]1C=C[C@](C)(O)[C@H]2CN1C(=O)c1c(O)c(=O)c(C(=O)NCc3c(F)cc(F)cc3F)cn12 [Example 15, (1R,10S,13S)-6,13-dihydroxy-10,13-dimethyl-5,8-dioxo-N-[(2,4,6-trifluorophenyl)methyl]-2,9-diazatricyclo[7.4.1.02,7]tetradeca-3,6,11-triene-4-carboxamide] | 28400 nM | 7.9 nM | 1.64 nM | 3.17 mL/min/kg
2 | C[C@H]1CC[C@H](O)[C@H]2CN1C(=O)c1c(O)c(=O)c(C(=O)NCc3ccc(F)cc3F)cn12 [Example 16, (3S,6S,7R)—N-(2,4-difluorobenzyl)-6,12-dihydroxy-3-methyl-1,11-dioxo-1,4,5,6,7,11-hexahydro-3H-2,7-methanopyrido[1,2-a][1,4]diazonine-10-carboxamide] | 41400 nM | 2.6 nM | 1.14 nM | 1.83 mL/min/kg
3 | C[C@H]1C=C[C@](C)(O)[C@H]2CN1C(=O)c1c(O)c(=O)c(C(=O)NCc3ccc(F)cc3F)cn12 [Example 17, (1R,10S,13S)—N-[(2,4-difluorophenyl)methyl]-6,13-dihydroxy-10,13-dimethyl-5,8-dioxo-2,9-diazatricyclo[7.4.1.02,7]tetradeca-3,6,11-triene-4-carboxamide] | 31400 nM | 3 nM | 1.33 nM | 2.83 mL/min/kg
4 | CO[C@H]1C=C[C@H](C)N2C[C@H]1n1cc(C(=O)NCc3c(F)cc(F)cc3F)c(=O)c(O)c1C2=O [Example 18, (3S,6S,7R)-12-hydroxy-6-methoxy-3-methyl-1,11-dioxo-N-(2,4,6-trifluorobenzyl)-1,6,7,11-tetrahydro-3H-2,7-methanopyrido[1,2-a][1,4]diazonine-10-carboxamide] | 13400 nM | 1.4 nM | 0.55 nM | 12.2 mL/min/kg
5 | CO[C@H]1C=C[C@H](C)N2C[C@H]1n1cc(C(=O)NCc3ccc(F)cc3F)c(=O)c(O)c1C2=O [Example 19, (3S,6S,7R)—N-(2,4-difluorobenzyl)-12-hydroxy-6-methoxy-3-methyl-1,11-dioxo-1,6,7,11-tetrahydro-3H-2,7-methanopyrido[1,2-a][1,4]diazonine-10-carboxamide] | 20000 nM | 1.1 nM | 0.38 nM | 7.83 mL/min/kg
6 | [2H][C@]1(OC)C=C[C@H](C)N2C[C@H]1n1cc(C(=O)NCc3ccc(F)cc3F)c(=O)c(O)c1C2=O [Example 21, (3S,6S,7R)—N-(2,4-difluorobenzyl)-12-hydroxy-6-methoxy-3-methyl-1,11-dioxo-1,6,7,11-tetrahydro-3H-2,7-methanopyrido[1,2-a][1,4]diazonine-6-d-10-carboxamide] | 19300 nM | 1.8 nM | 0.52 nM | 6.17 mL/min/kg
7 | CO[C@@]1(C)CC[C@H](C)N2C[C@H]1n1cc(C(=O)NCc3c(F)cc(F)cc3F)c(=O)c(O)c1C2=O [Example 23, (3S,6S,7R)-12-hydroxy-6-methoxy-3,6-dimethyl-1,11-dioxo-N-(2,4,6-trifluorobenzyl)-1,4,5,6,7,11-hexahydro-3H-2,7-methanopyrido[1,2-a][1,4]diazonine-10-carboxamide] | 9790 nM | 2.2 nM | 0.47 nM | 12 mL/min/kg
8 | CCO[C@H]1C=C[C@H](C)N2C[C@H]1n1cc(C(=O)NCc3c(F)cc(F)cc3F)c(=O)c(O)c1C2=O [Example 25, (3S,6S,7R)-6-ethoxy-12-hydroxy-3-methyl-1,11-dioxo-N-(2,4,6-trifluorobenzyl)-1,6,7,11-tetrahydro-3H-2,7-methanopyrido[1,2-a][1,4]diazonine-10-carboxamide] | 43700 nM | 4.1 nM | 0.82 nM | 9.67 mL/min/kg
9 | CCO[C@H]1CC[C@H](C)N2C[C@H]1n1cc(C(=O)NCc3c(F)cc(F)cc3F)c(=O)c(O)c1C2=O [Example 26, (3S,6S,7R)-6-ethoxy-12-hydroxy-3-methyl-1,11-dioxo-N-(2,4,6-trifluorobenzyl)-1,4,5,6,7,11-hexahydro-3H-2,7-methanopyrido[1,2-a][1,4]diazonine-10-carboxamide] | 44300 nM | 4.4 nM | 0.92 nM | 3.67 mL/min/kg
10 | C[C@H]1CC[C@H](OC(F)F)[C@H]2CN1C(=O)c1c(O)c(=O)c(C(=O)NCc3c(F)cc(F)cc3F)cn12 [Example 27, (3S,6S,7R)-6-(difluoromethoxy)-12-hydroxy-3-methyl-1,11-dioxo-N-(2,4,6-trifluorobenzyl)-1,4,5,6,7,11-hexahydro-3H-2,7-methanopyrido[1,2-a][1,4]diazonine-10-carboxamide] | 13600 nM | 1.1 nM | 0.35 nM | 14.7 mL/min/kg
